Key:
[1] = test system: murine lymphocytes (BALB/c responders, C57/B6 stimulators); experiment: Murine mixed lymphocyte reaction (BALB/c vs. C57BL6); assay type: cell-based, mouse; details: FIG. 10
Protocol: MLRs were performed essentially as described in Current Protocols in Immunology (1999, Section 3.12.6-3.12.7). That is, the primary spleen cells obtained from C57/B6J mice were used as stimulators. They were purified as described in Current Protocols in Immunology (1999, Section 3.1.5), and were irradiated (35 Gy) at the Hahnemann Hospital (Philadelphia, Pa.) blood bank facility. Primary spleen cells obtained from BALB/c/BYJ were depleted from the adherent cells using a nylon wool column, and were used as responders.
The various inhibitors were pre-plated onto 96 well, U-bottom plates and all experimental conditions were assayed at least in triplicate. 100,000 C57/B6 cells in RPMI medium, supplemented with 10% FBS, were plated into each well. 200,000 of BALB/c/BYJ cells were plated over the stimulator cells, to a final volume of 200 μl/well. Background controls received either no BALB/c cells, or no C57/B6 cells. One micro Ci of tritiated thymidine was added to each well after 4 days, and the plates were harvested 12 hours later.

[2] = test system: ConA stimulated human lymphocytes; experiment: Viable cell counts (trypan blue) during ConA stimulation; assay type: cell-based; details: 10 μg/ml ConA, manual counts over time (FIG. 11)
Protocol: FIG. 11 is a diagram depicting the effect of a 5HT type 1 receptor antagonist and a 5HT type 2 receptor antagonist on the cell numbers occurring during the mitogenic stimulation of human lymphocyte activation. The cells were stimulated with 10 μg/ml ConA. The cells were repurified on a Ficoll gradient prior to addition of the inhibitor. Trypan blue exclusion was used to count the viable cells.
To further assess the effects of propanolol (a general 5-HTR 1 antagonist) and risperidone (a general 5-HTR 2 antagonist) on the mitogenically stimulated lymphocyte culture, the number of viable cells were manually counted as the assay progressed. If the cells were not stimulated, there was no detectable change in the number of viable cells. When the cells were stimulated with ConA, a small lag period was observed and the beginning of the growth phase compared to the stimulation response curve observed in the absence of the inhibitor. […] Apparently, there is no decrease or increase compared with the starting cell numbers. It is unclear whether or not this is due too anergy, an inability to initiate the activation pathway, or both. […] Thus, based on the data presented here, the classes of antagonists that inhibit the type 2 serotonin receptors appear to be rate limiting for the lymphocyte activation processes.

[3] = test system: allogeneic CTL response against P815 cells; experiment: Murine allograft model, CTL killing of P815 target cells by splenocytes; assay type: in vivo, C57BL/6J mice; details: 5HT antagonists 200 μg/injection tail vein days 6 and 8; Cyclosporin A 100 μg ip daily from day −2; sacrifice day 14 (FIGS. 13, 14)
Protocol: The in vivo validation screen used was an art-recognized murine allogeneic rejection model as described in Zhan et al., 2000. For this assay, a complete MHC miss-match system was employed wherein 5×10^6 P815 cells ([H-2^d] DBA/2 mastocytoma) were injected into the peritoneal cavity of C57BL/6J (H-2^b) mice on day 0 of the experiment. These mice typically generate a strong cytotoxic T lymphocyte (CTL) reaction in response to P815 cells. Following the initial P815 cell inoculation, the mice were allowed to develop a CTL response (this usually takes about 10-14 days). […] Mice were then sacrificed on day 14 of the experiment as indicated in the figures; and the allogeneic CTL response was assayed as described previously (Tretiakova et al., 2000, Nature Biotechnology 18:984-988). The primary spleen cells from the treated and untreated animals were used in the direct CTL readout. Freshly obtained primary spleen cells were incubated with the [^3H] labeled target cells (P815 cells) at 100:1, 50:1, 25:1, and 12.5:1 ratios for 3.5 hours at 37° C. and harvested using a PHD harvester. The percentage of specific killing was determined using the formula % kill=(S−E)/S, where S is the amount of the DNA retained by the target cells in the absence of the effector cells and E is the amount of retained DNA in the presence of the effector cells (expressed in counts per minute; cpm).
This is an art-recognized model of allograft […] rejection based on that described by […]. (2000). In this model, there is a complete MHC mismatch between the P815 cells (H-2^d) and the C57BL6 mouse (H-2^b), thus ensuring an aggressive immune response. The data disclosed in FIG. 13, depicts results of experiments that included 6 treatment groups, each group consisting of three mice. Each mouse received 5×10^6 P815 cells injected into the peritoneal cavity on day 0 of the study. The first group was an untreated control group, which was used to establish the baseline response of the mice against the allogeneic stimulus. These mice, without any further treatments, were sacrificed, as were the other treatment groups, on day 14 of the study and their splenocytes assayed for target-specific killing of the P815 cells.
The average kill observed for the untreated group was about 45% at an effector to target ratio of 100:1. The second group was treated with risperidone, a 5HT-2 antagonist, administered via a tail vein bolus injection (200 μg/injection) on days 6 and 8 of the study. The timing of the drug administration was selected to ensure that the T cells were fully activated prior to the drug treatment. The third group was treated with propanolol, a 5HT-1 antagonist. All of the 5HT receptor antagonist-treated groups were treated as described for the risperidone-treated group. The fourth group was treated chronically with CyclosporinA. The Cyclosporin A was administered ip at a dosage of 100 μg/injection starting two days prior to the onset of the study, i.e., at day −2, and the injections were continued on a daily basis for the duration of the study.
Finally, studies conducted in vivo using the CD8-dependent allograft rejection model, in which P815 cells (a rapidly growing cell line taken from a mastocytoma in a DBA mouse), were expanded and used to create a robust rejection response in a C57BL6 mouse. In this study the mice received 5×10^6 P815 cells injected into their peritoneal cavity on day 0 of the study. The first group was an untreated control group (naïve animals), used to acquire the baseline response of the mice against the allogeneic stimulus. The positive controls were treated with the allogeneic cells without any further treatments. These animals were used to assess the induced allogeneic response against the P815 cells. […]

[4] = test system: ConA stimulated human lymphocytes; experiment: Human mitogenic (ConA) stimulation, 3H-thymidine incorporation; assay type: cell-based; details: for relief of phenelzine-induced inhibition / proliferative response, reagent added alone: 1 μg/ml ConA; for relief of phenelzine-induced inhibition: phenelzine-inhibited cells, reagents 100 μM (FIG. 6); for proliferative response, reagent added alone: reagent 100 μM (FIG. 6); for stimulation of ConA-activated human PBLs: reagents at 400 μM, time course (FIG. 4)
Protocol: Blood from healthy volunteers was drawn using venipuncture, using Vacutainer collection sets and heparinized collection vials. The blood was diluted 1:1 using HBSS to a total volume of 30 ml in 50 ml conical tubes (Fisher Scientific, Co., Pittsburgh, Pa.). […] Cells from the buffy coats were collected and the residual Histopaque was washed away using repeated centrifugations in HBSS. After washes, cells were resuspended at 5 million cells per ml in RPMI, supplemented with 2% FBS. To remove adherent cells, the suspension was plated onto a 6 well flat-bottom plate (Corning Costar), 3 ml/well, and incubated for 2 hours at 37° C., 5% CO2. Non-adherent cells were harvested after this incubation, were counted and resuspended in RPMI supplemented with 10% human serum (Sigma).
All drugs were pre-plated before the cell suspension was added onto each well of a 96-well round-bottom plate. All experimental conditions were assayed in at least triplicate. Cells suspended in RPMI supplemented with 10% human serum were plated at 100,000 cells per well to a final volume of 200 μl. […] Control samples received no ConA stimulation. The plates were incubated at 37° C. and 5% CO2.

[5] = test system: T cells in macrophage-conditioned media; experiment: Macrophage media-conditioning study, T cell proliferation in conditioned media; assay type: cell-based, mouse; details: assay shown in FIG. 1

Compound | outcome of murine MLR [1] | number of viable cells [2] | allograft (CTL) response [3] | relief of phenelzine-induced inhibition [4] | proliferative response, reagent added alone [4] | stimulation of ConA-activated human PBLs [4] | restoration of T cell proliferation in conditioned media [5] | further results
5-methyl hydroxytryptamine | slight enhancement |  |  |  |  |  |  | 
CC(C)NC[C@H](O)COc1cccc2ccccc12 (racemic) [propanolol] |  | prevents the cell from growing | did not protect the mice from the allograft rejection response |  |  |  |  | 
CNc1cc(NS(=O)(=O)c2ccc(N)cc2)nc(NC)n1 [Ro 04-679] | had no effects on the outcome of the assay |  |  |  |  |  |  | 
Cc1nc2n(c(=O)c1CCN1CCC(c3noc4cc(F)ccc34)CC1)CCCC2 [risperidone] |  | caused a brief cell increase, followed by the elimination of the cells in culture | inhibited the allograft response to varying degrees |  |  |  |  | 
NCCc1c[nH]c2ccc(O)cc12 [serotonin, 5-hydroxytryptamine] |  |  |  | caused the assay to rebound to baseline levels | did not | enhanced the maximal stimulation of the cells | only marginally restored the assay | proliferative response ([4]; differing ConA concentrations 0.1-10 μg/ml, harvest 72 hours (FIG. 5)): has no effect on the assay until the highest dose of ConA
N[C@@H](Cc1c[nH]c2ccccc12)C(=O)O [tryptophan] |  |  |  | had very little effect | enhanced the proliferative response | enhanced the maximal stimulation of the cells | had no effect | proliferative response ([4]; 0.1 μg/ml ConA, harvest 72 hours (FIG. 5A)): augments the proliferative response; proliferative response ([4]; highest ConA dose 10 μg/ml, harvest 72 hours (FIG. 5C)): no enhancement at the highest level

Reference: patent publication US20060135415A1, “Immunomodulation and effect on cell processes relating to serotonin family receptors and the blood-brain barrier” (priority 2002, published 2006)
